Where “and” joins values, the source holds several entries; their conditions need not be identical. Equal values may be shown once. Toxic doses and inconclusive results are not listed.
Tested on: L1210 leukemia ip in BDF1 mice, survival T/C
Experiment: NCI In Vivo Anticancer Drug Screen. Data for tumor model L1210 Leukemia (intraperitoneal) in B6D2F1 (BDF1) mice
Details: endpoint: mean survival time, higher = longer survival
How it was run: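 Mice bearing the transplanted tumor received compound or vehicle. Survival of the treated group was divided by that of the vehicle-treated control group to give the ratio.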

[1] = dose: 100.0 mg/kg/injection, schedule: Q01DX001 (ip), vehicle: saline
[2] = dose: 200.0 mg/kg/injection, schedule: Q01DX001 (ip), vehicle: saline
[3] = dose: 400.0 mg/kg/injection, schedule: Q01DX001 (ip), vehicle: saline
[4] = dose: 25.0 mg/kg/injection, schedule: Q04DX003 (ip), vehicle: Klucel (hydroxypropylcellulose) (HPC)
[5] = dose: 50.0 mg/kg/injection, schedule: Q04DX003 (ip), vehicle: Klucel (hydroxypropylcellulose) (HPC)
[6] = dose: 100.0 mg/kg/injection, schedule: Q04DX002 (ip), vehicle: Klucel (hydroxypropylcellulose) (HPC)
[7] = dose: 200.0 mg/kg/injection, schedule: Q04DX002 (ip), vehicle: Klucel (hydroxypropylcellulose) (HPC)
[8] = dose: 400.0 mg/kg/injection, schedule: Q04DX002 (ip), vehicle: Klucel (hydroxypropylcellulose) (HPC)
[9] = dose: 100.0 mg/kg/injection, schedule: Q04DX003 (ip), vehicle: saline
[10] = dose: 200.0 mg/kg/injection, schedule: Q04DX003 (ip), vehicle: saline
[11] = dose: 50.0 mg/kg/injection, schedule: Q01DX009 (ip), vehicle: Klucel (hydroxypropylcellulose) (HPC)
[12] = dose: 100.0 mg/kg/injection, schedule: Q01DX001 (ip), vehicle: Klucel (hydroxypropylcellulose) (HPC)
[13] = dose: 200.0 mg/kg/injection, schedule: Q01DX001 (ip), vehicle: Klucel (hydroxypropylcellulose) (HPC)
[14] = dose: 400.0 mg/kg/injection, schedule: Q01DX001 (ip), vehicle: Klucel (hydroxypropylcellulose) (HPC)
[15] = dose: 100.0 mg/kg/injection, schedule: Q01DX009 (ip), vehicle: saline with Tween-80
[16] = dose: 200.0 mg/kg/injection, schedule: Q01DX009 (ip), vehicle: saline with Tween-80
[17] = dose: 100.0 mg/kg/injection, schedule: Q01DX001 (ip), vehicle: carboxymethylcellulose (CMC)
[18] = dose: 200.0 mg/kg/injection, schedule: Q01DX001 (ip), vehicle: carboxymethylcellulose (CMC)
[19] = dose: 400.0 mg/kg/injection, schedule: Q01DX001 (ip), vehicle: carboxymethylcellulose (CMC)

COCCNC(=O)SCCC(=O)O
T/C [1]: 96 % of control
T/C [2]: 100 % of control
T/C [3]: 100 % of control

O=C1c2ccccc2C(=O)N1c1cc(=O)[nH]c(=O)[nH]1
T/C [4]: 111 % of control
T/C [5]: 92 % of control

CCCCCCCCCCCCCCCCCC(=O)OC(C(O)C=O)C(O)C(O)CO (configuration not stated)
T/C [6]: 95 % of control
T/C [7]: 109 % of control
T/C [8]: 95 % of control

O=[N+]([O-])c1ccccc1N=Nc1c(O)[nH]c2ccc(F)cc12
T/C (dose: 75.0 mg/kg/injection, schedule: Q01DX001 (ip), vehicle: acetone): 96 % of control
T/C (dose: 150.0 mg/kg/injection, schedule: Q01DX001 (ip), vehicle: acetone): 96 % of control
T/C (dose: 300.0 mg/kg/injection, schedule: Q01DX001 (ip), vehicle: acetone): 103 % of control

O=C1NC(=O)C([n+]2ccccc2)=C1[O-]
T/C (dose: 25.0 mg/kg/injection, schedule: Q04DX003 (ip), vehicle: saline): 110 % of control
T/C (dose: 50.0 mg/kg/injection, schedule: Q04DX003 (ip), vehicle: saline): 110 % of control
T/C [9]: 94 % of control and 100 % of control
T/C [10]: 96 % of control

COc1ccc2c(c1OC)C13CCCCC1C(C2)[N+](C)(C)CC3 (configuration not stated)
T/C (dose: 12.5 mg/kg/injection, schedule: Q04DX003 (ip), vehicle: Klucel (hydroxypropylcellulose) (HPC)): 100 % of control and 91 % of control
T/C (dose: 25.0 mg/kg/injection, schedule: Q01DX009 (ip), vehicle: Klucel (hydroxypropylcellulose) (HPC)): 100 % of control
T/C [4]: 94 % of control and 106 % of control
T/C [11]: 89 % of control
T/C [5]: 96 % of control and 88 % of control
T/C (dose: 100.0 mg/kg/injection, schedule: Q04DX003 (ip), vehicle: Klucel (hydroxypropylcellulose) (HPC)): 98 % of control

O=C(O)/C=C\C(=O)Nc1ccccc1[N+](=O)[O-]
T/C [6]: 90 % of control
T/C [7]: 114 % of control
T/C [8]: 104 % of control

O=C(O)c1ccc2c(c1Cl)C(=O)c1ccccc1C2=O
T/C (dose: 100.0 mg/kg/injection, schedule: Q04DX003 (ip), vehicle: saline with Tween-80): 98 % of control
T/C (dose: 200.0 mg/kg/injection, schedule: Q04DX003 (ip), vehicle: saline with Tween-80): 93 % of control

O=C(NCCCl)Nc1ccc(Cl)cc1
T/C [12]: 104 % of control
T/C [13]: 102 % of control
T/C [14]: 91 % of control

CCOC(=O)c1cc(Br)c(O)c(Br)c1
T/C [11]: 95 % of control
T/C (dose: 100.0 mg/kg/injection, schedule: Q01DX009 (ip), vehicle: Klucel (hydroxypropylcellulose) (HPC)): 91 % of control

c1cc[c]([Ge]([O][Ge]([c]2ccccc2)([c]2ccccc2)[c]2ccccc2)([c]2ccccc2)[c]2ccccc2)cc1
T/C (dose: 50.0 mg/kg/injection, schedule: Q01DX009 (ip), vehicle: saline with Tween-80): 94 % of control
T/C [15]: 96 % of control
T/C [16]: 96 % of control

Cc1cc2nc(Cc3nc4cc(C)c(C)cc4[nH]3)[nH]c2cc1C
T/C (dose: 50.0 mg/kg/injection, schedule: Q01DX Z (ip), vehicle: saline): 105 % of control
T/C [1]: 92 % of control
T/C (dose: 100.0 mg/kg/injection, schedule: Q01DX Z (ip), vehicle: saline): 95 % of control
T/C [9]: 100 % of control
T/C [2]: 93 % of control
T/C (dose: 200.0 mg/kg/injection, schedule: Q01DX Z (ip), vehicle: saline): 100 % of control
T/C [10]: 92 % of control
T/C [3]: 90 % of control
T/C (dose: 400.0 mg/kg/injection, schedule: Q01DX Z (ip), vehicle: saline): 97 % of control
T/C (dose: 400.0 mg/kg/injection, schedule: Q04DX003 (ip), vehicle: saline): 86 % of control

CN(C)C(=O)NCc1cccnc1
T/C (dose: 100.0 mg/kg/injection, schedule: Q04DX013 (ip), vehicle: saline): 100 % of control
T/C (dose: 200.0 mg/kg/injection, schedule: Q04DX013 (ip), vehicle: saline): 94 % of control
T/C (dose: 400.0 mg/kg/injection, schedule: Q04DX013 (ip), vehicle: saline): 101 % of control

O=C1OC(/C=C/c2ccccc2)=NC/1=C\c1ccc2c(c1)OCO2
T/C (dose: 100.0 mg/kg/injection, schedule: Q04DX002 (ip), vehicle: saline with Tween-80): 92 % of control
T/C (dose: 200.0 mg/kg/injection, schedule: Q04DX002 (ip), vehicle: saline with Tween-80): 89 % of control
T/C (dose: 400.0 mg/kg/injection, schedule: Q04DX002 (ip), vehicle: saline with Tween-80): 92 % of control

CCOc1ccc(N=Cc2cccc([N+](=O)[O-])c2)cc1
T/C (dose: 100.0 mg/kg/injection, schedule: Q01DX001 (ip), vehicle: saline with Tween-80): 103 % of control
T/C [15]: 107 % of control and 90 % of control
T/C (dose: 200.0 mg/kg/injection, schedule: Q01DX001 (ip), vehicle: saline with Tween-80): 90 % of control
T/C [16]: 97 % of control and 90 % of control
T/C (dose: 400.0 mg/kg/injection, schedule: Q01DX001 (ip), vehicle: saline with Tween-80): 99 % of control
T/C (dose: 400.0 mg/kg/injection, schedule: Q01DX009 (ip), vehicle: saline with Tween-80): 100 % of control and 91 % of control

Cc1cc2c(cc1C)-c1ccccc1C2=O
T/C [17]: 102 % of control
T/C [18]: 102 % of control
T/C [19]: 96 % of control

CC1([N+](=O)[O-])COP(=O)(NCCCN2CCOCC2)OC1 (configuration not stated)
T/C [17]: 97 % of control
T/C [18]: 97 % of control
T/C [19]: 97 % of control

O=C1c2ccccc2S(=O)N1OCc1ccccc1 (configuration not stated)
T/C [6]: 88 % of control
T/C [7]: 100 % of control

O=NN1CCCNC1=O
T/C (dose: 3.0 mg/kg/injection, schedule: Q01DX Z (ip), vehicle: carboxymethylcellulose (CMC)): 105 % of control
T/C (dose: 6.0 mg/kg/injection, schedule: Q01DX Z (ip), vehicle: carboxymethylcellulose (CMC)): 107 % of control
T/C (dose: 12.0 mg/kg/injection, schedule: Q01DX Z (ip), vehicle: carboxymethylcellulose (CMC)): 110 % of control
T/C (dose: 50.0 mg/kg/injection, schedule: Q01DX Z (ip), vehicle: carboxymethylcellulose (CMC)): 181 % of control
T/C (dose: 75.0 mg/kg/injection, schedule: Q01DX Z (ip), vehicle: carboxymethylcellulose (CMC)): 118 % of control
T/C (dose: 100.0 mg/kg/injection, schedule: Q01DX Z (ip), vehicle: carboxymethylcellulose (CMC)): 87 % of control

Cc1ccc(C(C)C)cc1NC(=O)c1cccc([N+](=O)[O-])c1
T/C (dose: 100.0 mg/kg/injection, schedule: Q01DX009 (ip), vehicle: other): 98 % of control
T/C (dose: 200.0 mg/kg/injection, schedule: Q01DX009 (ip), vehicle: other): 88 % of control
T/C (dose: 400.0 mg/kg/injection, schedule: Q01DX009 (ip), vehicle: other): 98 % of control

O=Nc1ccc(O)cc1Br
T/C [12]: 100 % of control
T/C [13]: 97 % of control
T/C [14]: 100 % of control and 92 % of control

c1ccc2[nH]c(CN3CCCCC3)cc2c1
T/C (dose: 12.5 mg/kg/injection, schedule: Q04DX003 (ip), vehicle: saline with Tween-80): 103 % of control
T/C (dose: 25.0 mg/kg/injection, schedule: Q04DX003 (ip), vehicle: saline with Tween-80): 98 % of control
T/C (dose: 50.0 mg/kg/injection, schedule: Q04DX003 (ip), vehicle: saline with Tween-80): 98 % of control

COc1cc(N)ccc1C(=O)NC(CCC(=O)O)C(=O)O (configuration not stated)
T/C [12]: 103 % of control
T/C [13]: 100 % of control
T/C [14]: 103 % of control
